Test results from the supplement of paper PMC10307832.

Experiments:
Test in all cases: relative viability (nuclei count vs DMSO), 5 days (fraction); higher = more cells survive
[1] = compound: O[C@H]1CC[C@H](Nc2ncc3nc(Nc4c(F)cc(F)cc4F)n([C@H]4CCOC4)c3n2)CC1 [Tanzisertib] + CCNC(=O)c1noc(-c2cc(C(C)C)c(O)cc2O)c1-c1ccc(CN2CCOCC2)cc1 [Luminespib] (partner 0.01 µM)
How it was run: (§1)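 Nuclei were stained with Hoechst during a one-step fixation (final 0.05% Triton X-100, 1% formaldehyde, 1 ug/ml Hoechst) carried out 5 days after dosing, then counted on 4× images. The cells, lung cancer lines in 1536-well plates, had been dosed by pin tool the day after seeding with one drug alone or a fixed anchor-drug dose plus five library-drug doses (not always all listed) in √10 steps. Relative viability is the nuclei count in treated wells divided by that in vehicle wells, and each value is the median of duplicate plates.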

[2] = compound: O[C@H]1CC[C@H](Nc2ncc3nc(Nc4c(F)cc(F)cc4F)n([C@H]4CCOC4)c3n2)CC1 [Tanzisertib] + N=C(N)NC(=N)NCCc1ccccc1 [Phenformin] (partner 250 µM)
How it was run: as §1

[3] = compound: C[C@@H](N)c1ccc(C(=O)Nc2ccnc3[nH]ccc23)cc1 + CCNC(=O)c1noc(-c2cc(C(C)C)c(O)cc2O)c1-c1ccc(CN2CCOCC2)cc1 [Luminespib] (partner 0.01 µM)
How it was run: as §1

[4] = compound: O[C@H]1CC[C@H](Nc2ncc3nc(Nc4c(F)cc(F)cc4F)n([C@H]4CCOC4)c3n2)CC1 [Tanzisertib] + C[C@@H](Oc1cc(-c2cnn(C3CCNCC3)c2)cnc1N)c1c(Cl)ccc(F)c1Cl [Crizotinib] (partner 1 µM)
How it was run: as §1

Cell Line | relative viability ([1]; first compound 0.08 µM) | relative viability ([1]; first compound 0.253 µM) | relative viability ([1]; first compound 0.8 µM) | relative viability ([1]; first compound 2.53 µM) | relative viability ([1]; first compound 8 µM) | relative viability ([2]; first compound 0.08 µM) | relative viability ([2]; first compound 0.253 µM) | relative viability ([2]; first compound 0.8 µM) | relative viability ([2]; first compound 2.53 µM) | relative viability ([2]; first compound 8 µM) | relative viability ([3]; first compound 0.04 µM) | relative viability ([3]; first compound 0.1265 µM) | relative viability ([3]; first compound 0.4 µM) | relative viability ([3]; first compound 1.265 µM) | relative viability ([3]; first compound 4 µM) | relative viability ([4]; first compound 0.08 µM) | relative viability ([4]; first compound 0.253 µM) | relative viability ([4]; first compound 0.8 µM) | relative viability ([4]; first compound 2.53 µM) | relative viability ([4]; first compound 8 µM)
NCI-H1563 | 0.485 | 0.498 | 0.524 | 0.484 | 0.446 | 0.662 | 0.688 | 0.654 | 0.681 | 0.624 | 0.514 | 0.484 | 0.499 | 0.508 | 0.514 | 0.85 | 0.937 | 0.869 | 0.966 | 0.79
LXF-289 | 0.66 | 0.621 | 0.684 | 0.675 | 0.643 | 0.55 | 0.532 | 0.519 | 0.545 | 0.535 | 0.711 | 0.616 | 0.785 | 0.691 | 0.534 | 0.935 | 0.734 | 0.836 | 0.815 | 0.854
LU99A | 0.204 | 0.238 | 0.239 | 0.26 | 0.227 | 0.971 | 0.82 | 0.884 | 0.813 | 0.786 |  | 0.303 | 0.323 | 0.251 | 0.292 | 0.557 | 0.567 | 0.513 | 0.638 | 0.586
PC-14 | 0.181 | 0.109 | 0.22 | 0.217 | 0.17 | 0.471 | 0.746 | 0.671 | 0.599 | 0.115 |  | 0.183 | 0.154 |  | 0.132 | 0.979 | 0.878 | 0.994 | 0.883 | 0.574
NCI-H2085 | 0.525 | 0.406 | 0.443 | 0.459 | 0.457 | 0.739 | 0.724 | 0.81 | 0.715 | 0.461 | 0.453 | 0.41 | 0.405 | 0.386 | 0.38 | 0.875 | 0.805 | 0.819 | 0.889 | 0.93
NCI-H2170 | 0.857 | 0.739 | 0.633 | 0.684 | 0.78 | 0.406 | 0.451 | 0.457 | 0.411 | 0.392 | 0.735 | 0.708 | 0.623 | 0.649 | 0.502 | 1.42 | 1.18 | 1.16 | 1.09 | 1.02
NCI-H2126 | 0.919 | 0.897 | 0.887 | 0.961 | 0.993 | 0.566 | 0.548 | 0.545 | 0.534 | 0.516 | 1 | 0.951 | 1.01 | 1.01 | 0.806 | 1.09 | 1.01 | 1.03 | 0.985 | 1.03
H3255 | 0.818 | 0.929 | 1.02 | 0.846 | 0.773 | 0.413 | 0.371 | 0.387 | 0.349 | 0.231 | 0.778 | 1.04 | 1 | 0.763 | 0.944 | 0.933 | 0.855 | 1.01 | 0.875 | 0.662
HCC-15 | 0.504 | 0.193 | 0.357 | 0.406 | 0.453 | 0.576 | 0.487 | 0.509 | 0.467 | 0.423 | 0.391 | 0.329 | 0.291 |  | 0.153 | 0.877 | 0.811 | 0.88 | 0.818 | 0.872
NCI-H661 | 0.903 | 0.943 | 0.902 | 0.952 | 0.955 | 0.32 | 0.256 | 0.24 | 0.285 | 0.284 | 0.921 | 0.923 | 0.873 | 0.781 | 0.811 | 1.04 | 0.939 |  | 1.02 | 0.991
NCI-H2009 | 1.09 | 1.06 | 1.11 | 1.02 | 1.04 | 0.52 | 0.483 | 0.515 | 0.593 | 0.553 | 0.966 | 0.957 | 0.952 | 0.836 | 0.815 | 1.04 | 1.13 | 1.02 | 1.12 | 1.06
HCC-44 | 1.14 | 1.12 | 1.09 | 1.07 | 1.13 | 0.171 | 0.297 | 0.269 | 0.306 | 0.0849 | 0.922 | 1.11 | 1.31 | 1.21 | 0.486 | 0.907 | 0.824 | 0.822 | 0.89 | 0.817
ChaGo-K-1 | 0.573 | 0.406 | 0.552 | 0.589 | 0.648 | 0.547 | 0.545 | 0.447 | 0.493 | 0.482 | 0.554 | 0.641 | 0.629 | 0.562 | 0.436 | 1.21 | 1.13 | 1.07 | 1.09 | 1.02
COR-L23 | 0.588 | 0.579 | 0.669 | 0.706 | 0.639 | 0.479 | 0.489 | 0.432 | 0.483 | 0.475 | 0.788 | 0.804 | 0.644 | 0.437 | 0.161 | 0.861 | 0.669 | 0.638 | 0.701 | 0.709
EMC-BAC-2 | 1.24 | 1.07 | 1.23 | 1.16 | 1.14 | 0.51 | 0.507 | 0.528 | 0.51 | 0.502 | 1.15 | 1.22 | 1.25 | 1.09 | 1.04 | 0.799 | 0.74 | 0.705 | 0.763 | 0.747
LCLC-103H | 1 | 0.888 | 0.941 | 1.05 | 1.12 | 0.375 | 0.327 | 0.309 | 0.345 | 0.343 | 1.15 | 0.914 | 0.956 | 0.911 | 0.69 | 1.06 | 1.01 | 1.11 | 1.09 | 1.01
